The values below come from patent US7517873B2, “Substituted pyrimidodiazepines” (Hoffman-La Roche Inc., priority 2007, dated 2009).

The structures appear in SMILES notation. A value given as a limit tells only on which side of the number the result lay.

The target in the assay is T1, GST-PLK1 (Homo sapiens, UniProt P53350).
T1 construct: Full-length, active GST-PLK1 is purified from Sf9 insect cells; made in house; host or cells: Sf9 insect cells
Nature of the assay: Biochemical Characterization Assay: GST-PLK1 kinase HTRF assay with GST-p53 substrate. Conditions: full-length GST-PLK1, GST-p53 and ATP, 37° C. for 35 minutes, HTRF signal. The method, then:
Biochemical Characterization Assay
Full-length, active GST-PLK1 is purified from Sf9 insect cells, and full-length GST-p53 is purified from E. coli. Anti-phospho p53 antibody is from Cell Signaling Technology. Europium-conjugated anti-rabbit antibody is from PerkinElmer Life and Analytical Sciences. APC-conjugated anti-GST antibody is from Prozyme.
To assay compounds of the invention, two microliters of test compound (0.6 nM-4 mM) in DMSO or plain DMSO for control wells, 38 microliters of 20 mM HEPES pH 7, 50 mM NaCl, 10 mM MgCl2, 0.5 mM TCEP, 0.1 mM sodium orthovanadate, 0.1 mg/mL BSA, and 0.05% Triton X-100 (Kinase Assay Buffer) are added. […] Six microliters of GST-PLK1 (3 ug/mL) in Kinase Assay Buffer are then added and the solution incubated at 37° C. for 35 minutes. Six microliters of solution containing 43 mM EDTA to stop the reaction and a 1:600 dilution of anti-phospho-p53 antibody in 20 mM HEPES pH 7, 50 mM NaCl, and 0.5 mg/mL BSA (Antibody Binding Buffer) are added and the solution incubated at 37° C. for 30 minutes. […] The HTRF signal is read on an Envision reader from PerkinElmer Life and Analytical Sciences.
On the technique in general: In TR-FRET formats the signal depends on donor and acceptor labels being close together.

T1 sequence (P53350 whole entry): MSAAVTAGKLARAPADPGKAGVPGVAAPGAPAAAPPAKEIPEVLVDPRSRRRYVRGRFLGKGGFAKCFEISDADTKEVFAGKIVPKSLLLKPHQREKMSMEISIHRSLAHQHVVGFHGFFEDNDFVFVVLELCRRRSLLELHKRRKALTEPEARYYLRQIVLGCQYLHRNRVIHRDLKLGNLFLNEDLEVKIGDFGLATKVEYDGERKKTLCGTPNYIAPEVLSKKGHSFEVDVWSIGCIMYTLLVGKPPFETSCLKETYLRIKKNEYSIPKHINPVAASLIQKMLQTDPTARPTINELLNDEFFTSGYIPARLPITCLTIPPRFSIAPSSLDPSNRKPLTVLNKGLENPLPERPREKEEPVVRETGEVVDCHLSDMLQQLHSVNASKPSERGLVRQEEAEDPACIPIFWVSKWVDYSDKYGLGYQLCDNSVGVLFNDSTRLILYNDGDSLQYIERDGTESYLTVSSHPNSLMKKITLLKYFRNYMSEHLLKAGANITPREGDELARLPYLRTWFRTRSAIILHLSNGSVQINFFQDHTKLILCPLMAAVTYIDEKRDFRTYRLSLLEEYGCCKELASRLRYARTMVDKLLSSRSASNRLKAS

Usually IC50 stands for the concentration that gives 50% inhibition. Low values mean higher potency, high ones lower potency. `COc1cc(C(=O)NC2CCN(C)CC2)ccc1Nc1ncc2c(n1)N(C1CCC(C)C1)CCC(=O)N2C` (racemic) [I-58, (rac)-3-Methoxy-4-[5-methyl-9-(3-methyl-cyclopentyl)-6-oxo-6,7,8,9-tetrahydro-5H-pyrimido[4,5-b][1,4]diazepin-2-ylamino]-N-(1-methyl-piperidin-4-yl)-benzamide] had an IC50 of less than 500 nM. For `COc1cc(C(=O)NC2CCN(C)CC2)ccc1Nc1ncc2c(n1)N(C1CCCC1(C)C)CCC(=O)N2C` (racemic) [I-59, (rac)-4-[9-(2,2-Dimethyl-cyclopentyl)-5-methyl-6-oxo-6,7,8,9-tetrahydro-5H-pyrimido[4,5-b][1,4]diazepin-2-ylamino]-3-methoxy-N-(1-methyl-piperidin-4-yl)-benzamide], the IC50 was less than 500 nM. With `C=CCN1CC(C)C(=O)N(C)c2cnc(Nc3ccc(C(=O)NC4CCN(C)CC4)cc3OC)nc21` (racemic) [I-65, (rac)-4-(9-Allyl-5,7-dimethyl-6-oxo-6,7,8,9-tetrahydro-5H-pyrimido[4,5-b][1,4]diazepin-2-ylamino)-3-methoxy-N-(1-methyl-piperidin-4-yl)-benzamide], the IC50 is less than 500 nM. On to `COc1cc(C(=O)NC2CCN(C)CC2)ccc1N(C)c1ncc2c(n1)N(C1CCCCC1)CC(C)C(=O)N2C` (racemic) [I-66, (rac)-4-[(9-Cyclohexyl-5,7-dimethyl-6-oxo-6,7,8,9-tetrahydro-5H-pyrimido[4,5-b][1,4]diazepin-2-yl)-methyl-amino]-3-methoxy-N-(1-methyl-piperidin-4-yl)-benzamide], for which the IC50 was greater than 5000 nM. With `COc1cc(C(=O)NC2CCN(C)CC2)ccc1Nc1ncc2c(n1)N1CCCC(C1)C(=O)N2C` (racemic) [I-67, (rac)-3-Methoxy-4-(8-methyl-9-oxo-1,3,5,8-tetraaza-tricyclo[8.3.1.0*2,7*]tetradeca-2,4,6-trien-4-ylamino)-N-(1-methyl-piperidin-4-yl)-benzamide], the IC50 was greater than 5000 nM. With `COc1cc(C(=O)NC2CCN(C)CC2)ccc1Nc1ncc2c(n1)N(C1CCCC1)C1CCCC1C(=O)N2C` (racemic) [I-68, (rac)-4-(4-Cyclopentyl-9-methyl-10-oxo-1,2,3,3a,4,9,10,10a-octahydro-4,5,7,9-tetraaza-benzo[f]azulen-6-ylamino)-3-methoxy-N-(1-methyl-piperidin-4-yl)-benzamide], the IC50 is less than 500 nM. Take `CC1CN(C2CCCC2)c2nc(Nc3cccc(C(=O)NC4CCN(C)CC4)c3)ncc2N(C)C1=O` (racemic) [I-69, (rac)-3-(9-Cyclopentyl-5,7-dimethyl-6-oxo-6,7,8,9-tetrahydro-5H-pyrimido[4,5-b][1,4]diazepin-2-ylamino)-N-(1-methyl-piperidin-4-yl)-benzamide]: the IC50 lay in the range of 500 to 5000 nM. As to `CC1CN(C2CCCC2)c2nc(Nc3cccc(C(=O)NCCCN(C)C)c3)ncc2N(C)C1=O` (racemic) [I-70, (rac)-3-(9-Cyclopentyl-5,7-dimethyl-6-oxo-6,7,8,9-tetrahydro-5H-pyrimido[4,5-b][1,4]diazepin-2-ylamino)-N-(3-dimethylamino-propyl)-benzamide], the half-inhibitory concentration (IC50) lay within 500 to 5000 nM.

In turn, `CC1CN(C2CCCC2)c2nc(Nc3cccc(C(=O)NC4CCOCC4)c3)ncc2N(C)C1=O` (racemic) [I-71, (rac)-3-(9-Cyclopentyl-5,7-dimethyl-6-oxo-6,7,8,9-tetrahydro-5H-pyrimido[4,5-b][1,4]diazepin-2-ylamino)-N-(tetrahydro-pyran-4-yl)-benzamide] yielded an IC50 of 500 to 5000 nM. `CC1CN(C2CCCC2)c2nc(Nc3cccc(C(=O)Nc4cccnc4)c3)ncc2N(C)C1=O` (racemic) [I-72, (rac)-3-(9-Cyclopentyl-5,7-dimethyl-6-oxo-6,7,8,9-tetrahydro-5H-pyrimido[4,5-b][1,4]diazepin-2-ylamino)-N-pyridin-3-yl-benzamide] registered an IC50 of less than 500 nM. With `COc1ccc(C(=O)NCCCN(C)C)cc1Nc1ncc2c(n1)N(C1CCCC1)CC(C)C(=O)N2C` (racemic) [I-73, (rac)-3-(9-Cyclopentyl-5,7-dimethyl-6-oxo-6,7,8,9-tetrahydro-5H-pyrimido[4,5-b][1,4]diazepin-2-ylamino)-N-(3-dimethylamino-propyl)-4-methoxy-benzamide], the IC50 is less than 500 nM. Regarding `COc1ccc(C(=O)NC2CCOCC2)cc1Nc1ncc2c(n1)N(C1CCCC1)CC(C)C(=O)N2C` (racemic) [I-74, (rac)-3-(9-Cyclopentyl-5,7-dimethyl-6-oxo-6,7,8,9-tetrahydro-5H-pyrimido[4,5-b][1,4]diazepin-2-ylamino)-4-methoxy-N-(tetrahydro-pyran-4-yl)-benzamide], the IC50 was less than 500 nM.

The compound `CC1CN(C2CCCC2)c2nc(Nc3ccc(OCc4ccccc4)cc3)ncc2N(C)C1=O` (racemic) [I-75, (rac)-2-(4-Benzyloxy-phenylamino)-9-cyclopentyl-5,7-dimethyl-5,7,8,9-tetrahydro-pyrimido[4,5-b][1,4]diazepin-6-one] displayed an IC50 greater than 5000 nM. Next, `CC1CN(C2CCCC2)c2nc(Nc3ccc4oc(-c5ccncc5)nc4c3)ncc2N(C)C1=O` (racemic) [I-76, (rac)-9-Cyclopentyl-5,7-dimethyl-2-(2-pyridin-4-yl-benzooxazol-5-ylamino)-5,7,8,9-tetrahydro-pyrimido[4,5-b][1,4]diazepin-6-one]: greater than 5000 nM; `CC1CN(C2CCCC2)c2nc(Nc3ccc4oc(-c5cccnc5)nc4c3)ncc2N(C)C1=O` (racemic) [I-77, (rac)-9-Cyclopentyl-5,7-dimethyl-2-(2-pyridin-3-yl-benzooxazol-5-ylamino)-5,7,8,9-tetrahydro-pyrimido[4,5-b][1,4]diazepin-6-one]: greater than 5000 nM.

`COc1ccc(NC(=O)c2ccccc2)cc1Nc1ncc2c(n1)N(C1CCCC1)CC(C)C(=O)N2C` (racemic) [I-78, (rac)-N-[3-(9-Cyclopentyl-5,7-dimethyl-6-oxo-6,7,8,9-tetrahydro-5H-pyrimido[4,5-b][1,4]diazepin-2-ylamino)-4-methoxy-phenyl]-benzamide] displayed an IC50 of 500 to 5000 nM.

On to `COc1cc(C(=O)NN)ccc1Nc1ncc2c(n1)N(C1CCCC1)CC(C)C(=O)N2C` (racemic) [I-79, (rac)-4-(9-Cyclopentyl-5,7-dimethyl-6-oxo-6,7,8,9-tetrahydro-5H-pyrimido[4,5-b][1,4]diazepin-2-ylamino)-3-methoxy-benzoic acid hydrazide], for which the IC50 was less than 500 nM.

For `COc1ccc(NC(=O)C2CCN(C(C)=O)CC2)cc1Nc1ncc2c(n1)N(C1CCCC1)CC(C)C(=O)N2C` (racemic) [I-80, (rac)-1-Acetyl-piperidine-4-carboxylic acid [3-(9-cyclopentyl-5,7-dimethyl-6-oxo-6,7,8,9-tetrahydro-5H-pyrimido[4,5-b][1,4]diazepin-2-ylamino)-4-methoxy-phenyl]-amide], the IC50 was 500 to 5000 nM.

In the case of `CCN1CCC(NC(=O)c2ccc(Nc3ncc4c(n3)N(C3CCCC3)CC(C)C(=O)N4C)cc2Cl)CC1` (racemic) [I-81, (rac)-2-Chloro-4-(9-cyclopentyl-5,7-dimethyl-6-oxo-6,7,8,9-tetrahydro-5H-pyrimido[4,5-b][1,4]diazepin-2-ylamino)-N-(1-ethyl-piperidin-4-yl)-benzamide], the IC50 was in the range of 500 to 5000 nM.

As to `CC1CN(C2CCCC2)c2nc(Nc3ccc(C(=O)Nc4cccnc4)c(Cl)c3)ncc2N(C)C1=O` (racemic) [I-82, (rac)-2-Chloro-4-(9-cyclopentyl-5,7-dimethyl-6-oxo-6,7,8,9-tetrahydro-5H-pyrimido[4,5-b][1,4]diazepin-2-ylamino)-N-pyridin-3-yl-benzamide], the IC50 is greater than 5000 nM.

`CC1CN(C2CCCC2)c2nc(Nc3ccc(C(=O)NCCCN(C)C)c(Cl)c3)ncc2N(C)C1=O` (racemic) [I-83, (rac)-2-Chloro-4-(9-cyclopentyl-5,7-dimethyl-6-oxo-6,7,8,9-tetrahydro-5H-pyrimido[4,5-b][1,4]diazepin-2-ylamino)-N-(3-dimethylamino-propyl)-benzamide] came in with an IC50 of 500 to 5000 nM. As to `CC1CN(C2CCCC2)c2nc(Nc3ccc(C(=O)NC4CCN(C)CC4)c(Cl)c3)ncc2N(C)C1=O` (racemic) [I-84, (rac)-2-Chloro-4-(9-cyclopentyl-5,7-dimethyl-6-oxo-6,7,8,9-tetrahydro-5H-pyrimido[4,5-b][1,4]diazepin-2-ylamino)-N-(1-methyl-piperidin-4-yl)-benzamide], the IC50 was less than 500 nM. The compound `CC1CN(C2CCCC2)c2nc(Nc3ccc(C(=O)NC4CCCCC4)c(Cl)c3)ncc2N(C)C1=O` (racemic) [I-85, (rac)-2-Chloro-N-cyclohexyl-4-(9-cyclopentyl-5,7-dimethyl-6-oxo-6,7,8,9-tetrahydro-5H-pyrimido[4,5-b][1,4]diazepin-2-ylamino)-benzamide] displayed an IC50 greater than 5000 nM.

The compound `CC1CN(C2CCCC2)c2nc(Nc3ccc(C(=O)Nc4ccncc4)c(Cl)c3)ncc2N(C)C1=O` (racemic) [I-86, (rac)-2-Chloro-4-(9-cyclopentyl-5,7-dimethyl-6-oxo-6,7,8,9-tetrahydro-5H-pyrimido[4,5-b][1,4]diazepin-2-ylamino)-N-pyridin-4-yl-benzamide] came in with an IC50 greater than 5000 nM.
